Numbered stars: 1 amine (or outer) side, 2 acyl side, 3 side chain; on linkers, the order of the positions; unused ones are H or OH. Bridge positions count the residues as written; N and C are the ends. Square brackets hold non-standard residues; d marks the D form. Peptide text beside a SMILES is read from it. I, II: the chains in the order shown. Actinocin(9to1) = Cc1c2oc3c(C)ccc(C(=O)[*:1])c3nc-2c(C(=O)[*:2])c(N)c1=O; NMeV = CN[C@H](C(=O)O)C(C)C; Sar = CNCC(=O)O
Columns and labels:
neurons and hESCs = assay: Specificity of RNA polymerase inhibitors (mRNA and mtRNA levels); format: cell-based, human; conditions: 12 hours treatment
Experimental: (§1) We transiently treated neurons with different RNA polymerase inhibitors for 12 hours prior to J2 staining to determine if RNA polymerase II (POLII) or mitochondrial RNA polymerase (POLRMT) give rise to neuronal dsRNA. The following inhibitors were used: actinomycin D (ActD), which inhibits both POLII and POLRMT (16); α-amanitin, a POLII inhibitor; and IMT1, a POLRMT-specific inhibitor (25). […] By quantifying depletion of dsRNA upon single treatments with α-amanitin or IMT1 treatment, we calculated the proportional contribution of POLII- or POLRMT-derived dsRNAs, respectively. We applied this analysis to various cell types. In HeLa cells, roughly 90% of dsRNA was derived from POLRMT. This is consistent with a prior study that concluded that roughly 95% of dsRNA in HeLa cells is located in mitochondria (16), validating our analysis. In both hESCs and HEK-293T cells, POLRMT and POLII contribute to roughly 70% and 30% of dsRNA, respectively. Conversely, in neurons, POLRMT and POLII transcripts contribute to 40% and 60% of dsRNA, respectively. […] In summary, mtRNA is the major component of dsRNA in HeLa, HEK-293T, and hESCs. However, in neurons, POLII-derived transcripts, presumably mRNAs, contribute to the bulk of the neuronal dsRNA load.
(§2) For treatment with various polymerase inhibitors, cells were treated for 12 hours prior to harvest with either ActD (10 ug/mL, Sigma), α-amanitin (25 ug/mL, Sigma), or IMT1 (1 uM, MedChemExpress).
RNA was extracted directly from cell samples using the Direct-zol RNA Miniprep kit (Zymo Research). cDNA conversion was completed using the ProtoScript II First Strand cDNA Synthesis kit (New England Biolabs). PowerUp SYBR Green (Thermo Fisher Scientific) and QuantStudio 3 Real-Time PCR System were used for qRT-PCR, and all primers are listed in Table S1. RPS11 or 18S rRNA were used as a housekeeping gene for normalization.

[1] = test system: dsRNA in neurons, hESCs, HEK-293T and HeLa cells; assay: J2 staining of dsRNA after RNA polymerase inhibitor treatment; format: cell-based, human
Experimental: as §1, §2
Cells grown on glass coverslips were washed with PBS and fixed using 4% paraformaldehyde for 20 minutes at 4° C. Samples were then blocked and permeabilized in PBTG (PBS, 1% BSA, 0.1% Triton-X100, 10% goat serum) for 1 hour at room temperature. Primary antibodies were diluted in PBTG and stained overnight at 4° C. Secondary antibodies (either goat anti-mouse IgG Alexa Fluor 488 or goat anti-rabbit IgG Alexa Fluor 594, Invitrogen (A11001 and A11012)) and DAPI were diluted in PBTG and stained for 1 hour at room temperature prior to mounting. Samples were imaged on an LSM-710 confocal microscope.
Images were processed and analyzed using ImageJ. MFI of individual cells was determined by tracing cell outlines. MFI data depicts 12 individual cells taken from at least 3 independent images. For colocalization analysis, the JACop plugin was used to measure MFI of 4 independent images.

SMILES	mRNA levels (neurons and hESCs)	proportion of dsRNA derived from POLII (depletion of dsRNA upon α-amanitin) ([1]; hESCs and HEK-293T cells) [%]	proportion of dsRNA derived from POLII (depletion of dsRNA upon α-amanitin) ([1]; neurons) [%]	mtRNA levels (neurons and hESCs)	dsRNA signal (J2) ([1]; neurons and hESCs, 12 hours treatment)	proportion of dsRNA derived from POLRMT (depletion of dsRNA upon IMT1) ([1]; HeLa cells)	proportion of dsRNA derived from POLRMT (depletion of dsRNA upon IMT1) ([1]; hESCs and HEK-293T cells)	proportion of dsRNA derived from POLRMT (depletion of dsRNA upon IMT1) ([1]; neurons) [%]
CC[C@H](C)[C@@H]1NC(=O)CNC(=O)[C@@H]2Cc3c([nH]c4cc(O)ccc34)[S+]([O-])C[C@@H](NC(=O)CNC1=O)C(=O)N[C@@H](CC(N)=O)C(=O)N1C[C@H](O)C[C@H]1C(=O)N[C@@H]([C@@H](C)[C@@H](O)CO)C(=O)N2 (stereo in doubt) [α-amanitin]	down-regulated	~30	60					
Cc1c2oc3c(C)ccc(C(=O)N[C@@H]4C(=O)N[C@H](C(C)C)C(=O)N5CCC[C@H]5C(=O)N(C)CC(=O)N(C)[C@@H](C(C)C)C(=O)O[C@@H]4C)c3nc-2c(C(=O)N[C@@H]2C(=O)N[C@H](C(C)C)C(=O)N3CCC[C@H]3C(=O)N(C)CC(=O)N(C)[C@@H](C(C)C)C(=O)O[C@@H]2C)c(N)c1=O [ActD, actinomycin D] (I: T[dV]P[Sar][NMeV] / II: T[dV]P[Sar][NMeV]; ester I:1-I:C, II:1-II:C; linker I:N-II:N via Actinocin(9to1))	down-regulated			down-regulated	abrogate almost all dsRNA signal			
Cc1ccccc1-c1cc(=O)oc2cc(OC(C)C(=O)N(C)C)ccc12 (stereo not shown) [IMT1]				down-regulated		roughly 90%	roughly 70%	40

Source: patent publication US20260125679A1, “FINE-TUNING INFLAMMATION BY ALTERING 3'UTR LENGTH” (priority 2023, published 2026)
